Columns and labels:
[1] = target: T1, alpha-glucosidase (Saccharomyces cerevisiae) (Saccharomyces cerevisiae, UniProt P53341); test: biochemical
T1 construct: purchased Sigma-Aldrich, Cape Town, South Africa
Excerpt: (§1) EGCG (epigallocatechin gallate), Trolox (6-hydroxyl-2,5,7,8-tetramethylchroman-2-carboxylic acid), and other reagents such as TPTZ (2,4,6-tri[2-pyridyl]-s-triazine, iron (III) chloride hexahydrate, ABTS (2,2-azino-bis (3-ethylbenzo thiazoline-6-sulfonic acid) diammonium salt), AAPH (2,2-Azobis (2-methylpropionamidine) dihydrochloride), fluorescein sodium salt, potassium peroxodisulfate, copper sulfate, hydrogen peroxide, perchloric acid, alpha-glucosidase (Saccharomyces cerevisiae), alpha-amylase ([…]), and 3,5,di-nitro salicylic acid (DNS), sodium carbonate (Na2CO3), 4-nitro-phenyl-α-D-glucopyranoside (pNPG), di-sodium hydrogen phosphate, and sodium dihydrogen phosphate purchased from Sigma-Aldrich, Cape Town, South Africa. The organic solvents used in this study were supplied by Merck, Cape Town, South Africa. The NMR spectra were carried out on an Avance 400 MHz spectrometer (Bruker, Rheinstetten, Germany) using deuterated chloroform. Preparative HPLC was utilized for the purification of compounds using HPLC-grade methanol and distilled water.
Briefly, 20 μL of 5 mM substrate ([…]) was added to each well and left to incubate for 20 min at 37 °C. The reacting mixture was stopped after incubation by adding 0.1 M sodium carbonate (50 μL). The release of p-nitrophenol of the reacting mixture relating to the activity of the enzyme was read at a wavelength of 405 nm using a multiplate reader (Multiskan, Thermo Scientific).
All the measurements were repeated three times, and the IC50 was calculated using GraphPad Prism 5 version 5.01 (Graph pad software, Inc., La Jolla, CA, USA) statistical software. The data presented are means ± SD obtained from 96-well-plate readers for all in vitro experiments.

[2] = target: T2, alpha-amylase (procaine pancreas) (Sus scrofa, UniProt P00690); test: Alpha-amylase inhibitory activity (starch/DNS); type: biochemical; settings: mean ± SD, n = 3; samples 100–31.2 μg/mL; NA: not active within the evaluated concentrations
T2 construct: purchased Sigma-Aldrich, Cape Town, South Africa
T2 sequence (P00690 16-511): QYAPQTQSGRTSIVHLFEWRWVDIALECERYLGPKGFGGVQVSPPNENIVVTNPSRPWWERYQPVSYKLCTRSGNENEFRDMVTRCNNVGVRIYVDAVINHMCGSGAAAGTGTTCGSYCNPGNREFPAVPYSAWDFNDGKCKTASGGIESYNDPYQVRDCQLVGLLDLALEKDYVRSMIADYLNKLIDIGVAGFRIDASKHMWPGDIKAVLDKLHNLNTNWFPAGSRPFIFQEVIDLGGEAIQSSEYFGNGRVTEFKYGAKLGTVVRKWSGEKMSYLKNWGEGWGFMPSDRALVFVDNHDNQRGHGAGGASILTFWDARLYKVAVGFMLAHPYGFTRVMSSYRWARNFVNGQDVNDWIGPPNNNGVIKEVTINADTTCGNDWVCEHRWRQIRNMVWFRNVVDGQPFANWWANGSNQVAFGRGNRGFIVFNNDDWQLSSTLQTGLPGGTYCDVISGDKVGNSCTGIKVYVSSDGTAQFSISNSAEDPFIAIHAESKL
Excerpt: as §1
The mixture was allowed to incubate for 20 min at 37 °C before the addition of 1% soluble starch (10 μL) and further incubated for another 30 min. A color reagent DNS (100 μL) was added and boiled at 95 °C for 15 min. The change in color was read at a wavelength of […] using a multiplate reader.
The data presented are means ± SD obtained from 96-well-plate readers for all in vitro experiments.

[3] = Oxygen radical absorbance capacity (ORAC) assay; settings: Trolox equivalent; mean ± SD of triplicate
Excerpt: The method of Cao and Prior (1998) was employed to measure oxygen radical absorbance capacity (ORAC) and as reported in our previous study. The method measures the scavenging potential of compounds against the decomposition of peroxyl radical of 2,2-azobis (2-amino-propane) dihydrochloride (AAPH) as peroxyradical (ORAC ROO^•). The antioxidant capacity of a compound is a measure of the fading fluorescence of a probe (fluorescein) using the area under the curve (AUC) plot in relation to a control blank. The florescence of the probe was programmed to be measured at every two minutes for 2 h after the addition of AAPH at the excitation wavelength and emission set at 485 and 530 nm, respectively. The ORAC results were estimated following a regression equation (Y = a + bX + Cx^2) between Trolox concentration (Y in μM) and the net area under the fluorescence decay curve (X). ORAC values were expressed as μM Trolox equivalent (TE)/mg of test sample.

[4] = Trolox equivalent absorbance capacity (TEAC) assay; settings: mean ± SD of triplicate
Procedure: The TEAC assay was evaluated following the method of Pellegrini et al. (1999). The working solution containing 88 µL of K2S2O8 (140 mM) and 5 mL ABTS (7 mM) was kept for at least 16 h in the dark at 25 °C. The working solution was then diluted after 16 h with ethanol until the absorbance read approximately 2.0 (±0.1). The extract, purified compounds, or standard (25 µL) was mixed with 300 µL working solution and allowed to incubate in the dark for 30 min at room temperature. Trolox was used as the standard using a concentration range between 0 and 500 µM. The absorbance of the reaction was read at a wavelength of 734 nm using a multiplate reader.

[5] = Ferric-ion reducing antioxidant power (FRAP) assay; settings: ascorbic acid equivalent; mean ± SD of triplicate
Procedure: The FRAP assay was assessed according to the method of Benzie and Strain (1996). FRAP reagent containing the mixture of acetate buffer (300 mM, pH 3.6), tripyridyl triazine (TPTZ) (10 mM in 40 mM HCl), and 20 mM FeCl3.6H2O in ratio 10:1:1 (v/v/v) was used. Extract, compounds, or standard (10 µL) was added to 300 µL FRAP reagent, incubated for 30 min in the dark at room temperature. The reacting mixture was read at a wavelength of 593 nm in a multiplate reader. Ascorbic acid was used as standard at varying concentrations of 0 to 1000 µM. The result was presented as a mean of independent triplicate experiments and expressed as µM ascorbic acid equivalents per milligram dry weight (µM AAE/g) of the test samples.

[6] = target: rat liver diacylglycerol acyltransferase 1 (DGAT1); design: method as in PMID 28034282; settings: read-out: IC50 against rat liver DGAT1; cited from earlier work
[7] = system: intracellular de novo triglyceride synthesis; design: method as in PMID 28034282; settings: without affecting cell viability; cited from earlier work

T1 sequence (P53341 whole entry): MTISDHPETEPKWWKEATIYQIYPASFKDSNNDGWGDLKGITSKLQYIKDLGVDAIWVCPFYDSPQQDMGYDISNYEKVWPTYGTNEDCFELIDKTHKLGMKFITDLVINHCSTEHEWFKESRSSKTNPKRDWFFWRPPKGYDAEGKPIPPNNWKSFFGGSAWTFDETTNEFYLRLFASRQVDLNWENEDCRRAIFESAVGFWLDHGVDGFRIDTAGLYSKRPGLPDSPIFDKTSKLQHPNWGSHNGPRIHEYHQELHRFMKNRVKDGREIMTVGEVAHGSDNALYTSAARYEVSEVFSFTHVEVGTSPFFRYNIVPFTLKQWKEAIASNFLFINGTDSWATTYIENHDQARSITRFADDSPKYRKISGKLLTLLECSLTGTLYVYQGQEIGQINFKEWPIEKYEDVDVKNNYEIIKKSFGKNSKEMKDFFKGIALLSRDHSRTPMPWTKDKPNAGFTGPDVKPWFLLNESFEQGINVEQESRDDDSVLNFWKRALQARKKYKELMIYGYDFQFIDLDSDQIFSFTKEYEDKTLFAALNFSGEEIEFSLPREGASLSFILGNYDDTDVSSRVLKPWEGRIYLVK

CC(C)c1cc2c(c(O)c1O)[C@@]13CCCC(C)(C)[C@@H]1[C@H](OC3=O)[C@H]2O [Rosmanol, rosmanol] gave an IC50 [1] of 47.3 µM, an IC50 [2] of 118 µM and an ORAC [3] of 25.79 ± 0.01 mM TE/g. The TEAC [4] was 2.06 ± 0.003 mM TE/g and the FRAP [5] was 1.52 ± 0.002 mM AAE/g.

With O=C(O[C@@H]1Cc2c(O)cc(O)cc2O[C@@H]1c1cc(O)c(O)c(O)c1)c1cc(O)c(O)c(O)c1 [EGCG, epigallocatechin gallate, reference compound] the ORAC [3] was 3.98 ± 0.00 mM TE/g, the TEAC [4] was 4.15 ± 0.02 mM TE/g and the FRAP [5] was 7.53 ± 0.005 mM AAE/g.

Work on CC(C)c1cc2c(c(O)c1O)[C@@]13CCCC(C)(C)[C@@H]1C[C@@H]2OC3=O [Carnosol, carnosol] yielded an IC50 [1] of 157 µM, an IC50 [2] of 59.9 µM and an ORAC [3] of 23.96 ± 0.01 mM TE/g. For the same compound, the TEAC [4] was 0.33 ± 0.002 mM TE/g, the FRAP [5] was 3.92 ± 0.002 mM AAE/g and the IC50 [6] was 62.5 µM. For the same compound, the “deactivation of intracellular de novo triglyceride synthesis” value [7] was 67.5–90.6%.

In the case of COc1c(C(C)C)cc2c(c1O)[C@@]1(C(=O)O)CCCC(C)(C)[C@@H]1CC2 [12-methoxycarnosic acid], the IC50 [1] is reported as 107 µM, the IC50 [2] is reported as 46.8 µM and the ORAC [3] is reported as 20.25 ± 0.01 mM TE/g. The TEAC [4] was 0.34 ± 0.003 mM TE/g and the FRAP [5] was 0.51 ± 0.003 mM AAE/g.

In the case of COc1ccc(-c2cc(=O)c3c(O)cc(OC)cc3o2)cc1 [4,7-dimethylapigenin ether, 4,7-dimethylapigenin], the IC50 [1] is reported as 96.2 µM, the ORAC [3] is reported as 6.47 ± 0.01 mM TE/g and the TEAC [4] is reported as 3.19 ± 0.003 mM TE/g. It also gave an FRAP [5] of 0.61 ± 0.006 mM AAE/g.

— PMC7699461, “Alpha-Glucosidase and Alpha-Amylase Inhibitory Activities, Molecular Docking, and Antioxidant Capacities of Salvia aurita Constituents” (Antioxidants, 2020)
